“Also recorded” adds a separate entry of the source.
Tests used:
[1] = Solubility of ganaxolone; format: physicochemical
Description: Ganaxolone is insoluble in water. […] Ganaxolone has a relatively long half-life—approximately 20 hours in human plasma following oral administration (Nohria, V. and Giller, E., Neurotherapeutics, (2007) 4(1): 102-105). Furthermore, ganaxolone has a short Tmax, which means that therapeutic blood levels are reached quickly.
Ganaxolone formulations suitable for parenteral administration in the methods of the present invention may comprise physiologically acceptable sterile aqueous or non-aqueous solutions, dispersions, suspensions or emulsions, and sterile powders for reconstitution into sterile injectable solutions or dispersions. Examples of suitable aqueous and non-aqueous carriers, diluents, solvents, or vehicles including water, ethanol, polyols (propylene glycol, polyethylene-glycol, glycerol, cremophor and the like), suitable mixtures thereof, vegetable oils (such as olive oil) and injectable organic esters such as ethyl oleate. Additionally, ganaxolone can be dissolved at concentrations of >1 mg/ml using water soluble beta cyclodextrins (e.g. beta-sulfobutyl-cyclodextrin and 2-hydroxypropylbetacyclodextrin). A particularly suitable cyclodextrin is a substituted-β-cyclodextrin is Captisol®. […]

[2] = Human PK in subjects taking strong CYP inducers; format: in vivo; details: subjects taking strong CYP inducers (carbamazepine and phenytoin)
[3] = Safety in the ganaxolone clinical development program; format: in vivo, human
Description: In the completed placebo-controlled Phase 1, 2, and 3 studies, 0.32% of subjects who received ganaxolone and 0.46% of subjects who received placebo developed elevated LFTs during the study (>3×ULN AST and/or ALT). A subject participating in the ganaxolone paediatric epilepsy study developed liver failure, which was not considered to be related to ganaxolone. The subject was diagnosed with short bowel syndrome, liver steatosis and IgG-cholangitis, which were considered to be the causal factors for the subject's liver failure. There have been no other cases of Hy's Law or liver failure in the ganaxolone development program. […] After cessation of the dosing, plasma ganaxolone levels are expected to drop rapidly, but it is possible that low sub-therapeutic levels persist for several days as ganaxolone is slowly released from tissues.
Ganaxolone has been administered to infants with severe forms of epilepsy as early as 4 months of age. In clinical trials involving administration of ganaxolone over several weeks, the study drug has been tapered off over a 1 to 2-week period.

[4] = test system: healthy subjects; test: Phase 1 IV ganaxolone pharmacodynamics (BIS, EEG) in healthy subjects; format: in vivo, human
Description: A Phase I clinical trial evaluating IV ganaxolone formulation was performed. The clinical trial was designed to investigate the safety, pharmacokinetics, and pharmacodynamics of an intravenous bolus of ganaxolone and continuous intravenous infusion of ganaxolone in 30 healthy subjects. Subjects were administered either an intravenous bolus of ganaxolone in an amount of 10-20 mg for a period of 2 minutes to 1 hour, or an intravenous bolus of ganaxolone in an amount of 6 mg for a period of 5 minutes with a continuous intravenous infusion in an amount of 20 mg/hr for a period of 4 hours.
There was little or no delay between the appearance of drug in plasma and a change in the BIS score.

[5] = Phase 2 Study 1042-SE-2001 open-label group, safety; format: in vivo, human
Description: As of 22 Mar. 2019, 5 subjects were enrolled into the Study 1042-SE-2001 open-label group under the original protocol that limits daily Captisol exposure at 35 g/day. […] The initial EEG pattern post-infusion initiation was described by study physicians as a “light” burst suppression that was maintained for several hours in all subjects. […] It was observed that when GNX exposure was lowered (20 mg/hr for 2 hours and ending with 10 mg/hr for the remaining 18 hours on Day 1) in order not to exceed this limit, seizure control could not be maintained and seizure activity (but not SE) re-occurred as evidenced by EEG changes. […] Seizure activity relapsed when plasma concentrations of GNX decreased <500 ng/mL in 4 out of 5 subjects.
Subject 015-101 was a person who presented with focal convulsive SE due to a tumor (Day 1). Recent medical history included convulsive seizures, SE, and Glioblastoma multiform of parietal lobe. Subject was administered levetiracetam for SE and lorazepam, diazepam, dexamethasone, and multiple doses of levetiracetam for seizure control prior to study enrollment. On Day 3, the subject was enrolled in the study and started on IV GNX 30 mg bolus dose plus continuous infusion (85 mg/hr). At the start of dose initiation the subject was alert. […] They were arousable to voice but required continuous stimulation to stay awake or follow commands. They maintained their airway and was able to endorse that the numbness had resolved and reported that they no longer felt twitches. […] The subject had significant direction-changing nystagmus and complained of blurry vision. […] During the next 2 hours the subject remained somnolent and was becoming increasingly restless. As per the protocol, GNX was decreased to 40 mg/hr at 2 hours post dose initiation. Approximately 10 to 15 minutes after the infusion rate was decreased to 40 mg/hr, the subject's arousal improved, they became conversational, and wanted to eat. They had no seizures at this time. Vital signs remained stable. During the GNX infusion, concomitant lacosamide was increased due to increased numbness. […] Once the GNX taper was completed the investigator reported there were no sequelae.
Under the protocol amended with the 50 g/day Captisol limit, 1 subject was enrolled in the open-label study as of 26 Mar. 2019. The subject presented with NCSE due to a tumor. The subject failed 3 second-line IV AEDs and qualified for the study based on the study's inclusion/exclusion criteria. Within 3 minutes after starting the IV GNX infusion, the RSE ceased and seizure protection was maintained for the remaining 48 hours of GNX treatment. […] Pharmacokinetic data were unavailable at the time of this report.

[6] = cited from earlier work

## CC(=O)[C@H]1CC[C@H]2[C@@H]3CC[C@H]4C[C@](C)(O)CC[C@]4(C)[C@H]3CC[C@]12C [Ganaxolone, 3α-hydroxy-3β-methyl-5α-pregnan-20-one]
[1]; aqueous with cosolvent or surfactant or cyclodextrin, beta-sulfobutyl-cyclodextrin, 2-hydroxypropylbetacyclodextrin, read-out: dissolved concentration using water soluble beta cyclodextrins
  solubility: > 1000 µg/mL
[1]; water
  solubility in water: insoluble
[2]
  lowering in overall ganaxolone levels and exposure: ~45%
[3]; clinical trials, tapered off over 1 to 2 weeks
  withdrawal symptoms after cessation: no reports of withdrawal symptoms
[3]; completed placebo-controlled Phase 1, 2 and 3 studies
  subjects who developed elevated LFTs (>3×ULN AST and/or ALT): 0.32%
[3]; development program overall
  trends in ECG intervals, vital signs, physical or neurological examinations: no clinically significant trends
[3]; ganaxolone and its metabolites
  excretion to breast milk: excreted to breast milk
[4]; Phase 1, FIG. 1
  EEG and BIS changes: consistent with sedative/anesthetic effects
[4]; healthy subjects, IV
  bispectral index (BIS) score versus plasma concentration: higher plasma concentration was associated with lower BIS scores
[5]; 1 subject, amended protocol, concomitant AEDs
  safety finding related to GNX: increased sedation
[5]; 5 subjects
  GNX-related cardiovascular events requiring pharmacological intervention: no GNX-related cardiovascular events that required pharmacological intervention were observed
  intubation as a direct result of GNX therapy: no subjects had to be intubated as a direct result of GNX therapy
[5]; Subject 015-101, 30 mg bolus, 85 mg/hr, listed as GNX
  adverse observations during infusion: significant somnolence; also recorded: urinary retention with urgency
[6]; human plasma following oral administration
  half-life: approximately 20 hours
[6]; human
  Tmax: short

Reference: patent US12246026B2, “Ganaxolone for use in treatment of status epilepticus” (Marinus Pharmaceuticals, Inc., priority 2019, dated 2025)
